Reference: the supplement of paper PMC10307832

What was measured:
Assay in all cases: relative viability (nuclei count vs DMSO), 5 days (fraction); higher = more cells survive
[1] = compound: C1COCCN1C2=NC(=NC3=C2OC4=C3C=CC=N4)C5=CC(=CC=C5)NC(=O)C6=CN=C(C=C6)N + CS(=O)(=O)N1CCN(Cc2cc3nc(-c4cccc5[nH]ncc45)nc(N4CCOCC4)c3s2)CC1 [Pictilisib] (partner 1 µM)
Outline: (§1)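 Dosing by pin tool came one day after lung cancer cell lines were seeded in 1536-well plates, using either one drug or a fixed anchor-drug dose plus five library-drug doses (not always all listed) in √10 steps. After 5 days, nuclei were counted on 4× images. Relative viability is treated-well nuclei count divided by vehicle-well nuclei count, and values are medians of duplicate plates.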

[2] = compound: C1COCCN1C2=NC(=NC3=C2OC4=C3C=CC=N4)C5=CC(=CC=C5)NC(=O)C6=CN=C(C=C6)N + CC(=O)c1c(C)c2cnc(Nc3ccc(N4CCNCC4)cn3)nc2n(C2CCCC2)c1=O [Palbociclib] (partner 0.5 µM)
Outline: as §1

SGI-1776 + Olaparib = compound: CN1CCC(CNc2ccc3ncc(-c4cccc(OC(F)(F)F)c4)n3n2)CC1 [SGI-1776] + O=C(c1cc(Cc2n[nH]c(=O)c3ccccc23)ccc1F)N1CCN(C(=O)C2CC2)CC1 [Olaparib] (partner 8 µM)
Outline: as §1

SGI-1776 + Lapatinib = compound: CN1CCC(CNc2ccc3ncc(-c4cccc(OC(F)(F)F)c4)n3n2)CC1 [SGI-1776] + CS(=O)(=O)CCNCc1ccc(-c2ccc3ncnc(Nc4ccc(OCc5cccc(F)c5)c(Cl)c4)c3c2)o1 [Lapatinib] (partner 2 µM)
Outline: as §1

Cell Line	relative viability ([1]; first compound 0.02 µM)	relative viability ([1]; first compound 0.06325 µM)	relative viability ([1]; first compound 0.2 µM)	relative viability ([1]; first compound 0.6325 µM)	relative viability ([1]; first compound 2 µM)	relative viability ([2]; first compound 0.02 µM)	relative viability ([2]; first compound 0.06325 µM)	relative viability ([2]; first compound 0.2 µM)	relative viability ([2]; first compound 0.6325 µM)	relative viability ([2]; first compound 2 µM)	relative viability (SGI-1776 + Olaparib; first compound 0.08 µM)	relative viability (SGI-1776 + Olaparib; first compound 0.8 µM)	relative viability (SGI-1776 + Olaparib; first compound 2.53 µM)	relative viability (SGI-1776 + Olaparib; first compound 8 µM)	relative viability (SGI-1776 + Lapatinib; first compound 0.08 µM)	relative viability (SGI-1776 + Lapatinib; first compound 0.8 µM)	relative viability (SGI-1776 + Lapatinib; first compound 2.53 µM)	relative viability (SGI-1776 + Lapatinib; first compound 8 µM)
NCI-H2347	0.735	0.703	0.601	0.619	0.497	0.443	0.413	0.4	0.48	0.441	0.606	0.674	0.632	0.614	1.13	0.965	0.948	0.869
ABC-1	0.711	0.717	0.773	0.768	0.609	0.562	0.658	0.55	0.7	0.471	0.78	0.874	0.5	0.842	1.36	1.16	1.28	1.1
201T	0.661	0.66	0.654	0.735	0.696	0.357	0.358	0.372	0.346	0.324	0.856	0.893	0.854	0.9	1	0.981	1.02	0.942
NCI-H1755	0.481	0.494	0.377	0.405	0.357	0.418	0.481	0.442	0.426	0.365	0.913	0.848	0.798	0.671	0.995	1.09	0.967	0.788
NCI-H1651	0.621	0.608	0.68	0.567	0.31	0.51	0.509	0.499	0.495	0.395	0.205	0.187	0.18	0.174	0.822	0.871	0.76	0.709
NCI-H1437	0.357	0.483	0.41	0.362	0.337	0.3	0.312	0.269	0.295	0.2	0.65	0.618	0.6	0.552	0.81	0.918	0.806	0.664
NCI-H1975	0.276	0.309	0.278	0.273	0.257	0.589	0.777	0.48	0.455	0.38	0.877	0.791	0.73	0.638	0.922	0.928	0.899	0.838
BEN	0.587	0.556	0.597	0.501	0.589	0.465	0.44	0.498	0.464	0.425	1.01	1.15	1.07	0.966	0.695	0.739	0.705	0.532
NCI-H322M	0.508	0.542	0.474	0.585	0.484	0.485	0.536	0.54	0.48	0.384	0.871	0.772	0.812	0.697	0.56	0.603	0.539	0.569
SK-MES-1	0.31	0.407	0.369	0.353	0.317	0.314	0.329	0.294	0.276	0.312	0.772	0.744	0.664	0.347	0.494	0.447	0.449	0.404
HOP-62	0.792	0.82	0.698	0.876	0.499	0.529	0.513	0.444	0.426	0.182	0.436	0.63	0.448	0.59	1.19	0.954	1.16	0.928
HCC-366	0.0246	0.144	0.107	0.107	0.204	0.397	0.435	0.367	0.419	0.22	0.347	0.449	0.379	0.294	1.12	0.95	0.992	0.837
NCI-H2405	0.431	0.45	0.414	0.428	0.423	0.498	0.566	0.499	0.48	0.359	0.828	0.879	0.789	0.712	0.994	1.14	1.19	0.728
NCI-H1650	0.505	0.588	0.526	0.592	0.483	0.336	0.321	0.274	0.39	0.287	0.8	0.946	0.734	0.607	0.877	0.983	0.809	0.343
NCI-H1355	0.336	0.424	0.413	0.423	0.459	0.371	0.385	0.423	0.609	0.354	0.749	0.695	0.78	0.687	0.915	0.989	1.01	0.799
NCI-H1793	0.312	0.279	0.398	0.408	0.361	0.306	0.335	0.317	0.218	0.255	0.87	0.99	0.864	0.8	0.701	0.749	0.668	0.974
NCI-H1734	0.466	0.494	0.429	0.443	0.355	0.413	0.355	0.342	0.33	0.271	0.69	0.691	0.715	0.567	1.13	1.05	1.11	0.938
